In publication PMC8619202, “Optimization of Microwave-Assisted Green Method for Enhanced Solubilization of Water-Soluble Curcuminoids Prepared Using Steviol Glycosides” (Foods, 2021):
Converted amounts (≈) assume the structure as drawn.

Experiments:
[1] = cited from earlier work; for solubility in dimethyl sulfoxide / solubility in ethanol / solubility in water: from C. longa
[2] = Storage stability of curcuminoids solubilized in steviol glycoside solutions, HPLC; conditions: for stability of solubilized curcuminoids at room temperature: 10% (w/v) SG, protected from light, 24 h
Method: (§1) In order to evaluate the stability in 10% (w/v) SGs, the water-soluble curcuminoids were analyzed by HPLC for 1 month. […] In order to achieve better solubility, transglycosylation is regarded as an important procedural phenomenon that leads to structural modifications and derivatizations that result in enhanced biological activities and improved solubility. Moreover, heating in the case of microwave irradiation is usually dependent on the nature of the sample, the solvent employed, and the irradiation power level mediated through the ionic conduction and dipole rotation (also known as dipole polarization) of the microwaves. In the absence of ions, water dipoles are found in the free form and may experience dipole rotation due to microwave radiation-induced oscillation.

[3] = Solubility of curcuminoids in the presence of steviol glycosides, with or without microwave or other physical treatment, HPLC; conditions: steviol glycoside 10% w/v; for Bisdemethoxycurcumin (mg/mL) NT / Curcumin (mg/mL) NT / Demethoxycurcumin (mg/mL) NT / Total Curcuminoids (mg/mL) NT: not treated by microwave
Method: The effect of water concentration to extract curcuminoids was investigated. […] The mixture in an ethanol solution was vortexed for 15 min and centrifuged at 12,000× g for 10 min (SupraR30, W × D × H: 710 × 1000 × 1260 mm, Hanil Scientific Inc., Gimp, Korea). The supernatant was transferred to a new tube and ethanol was evaporated. The resulting powders were dissolved in water, centrifuged at 12,000× g for 10 min, and filtered through a 0.20 μm membrane (Agilent, Santa Clara, CA, USA).
Weighing of the appropriate amounts of each steviol glycoside and curcuminoids was carried out, and they were put into 50 mL glass bottles. Furthermore, the suspension of curcuminoid–SG was subjected to heating by exposure to microwave irradiation in a microwave-assisted extractor (CEM, Matthews, NC, USA) at 100 W and 25 °C. Prior to conducting chromatographic analyses as per the reported method of Nguyen et al., the filtration of all samples was performed using a 0.45 μm nylon syringe filter (Millipore, Billerica, MA, USA). The quantitative concentration determination of curcuminoids and SGs was performed by employing series of standard solutions of curcuminoid in methanol with concentrations ranging from 0.15 to 10 μg/mL according to the reported method. Chromatographic separation for quantitative analysis was carried out using an Agilent 1200 liquid chromatographic system (Agilent Technologies, Palo Alto, CA, USA) equipped with an autosampler, quaternary HPLC pump, degasser, ZORBAX SB-C18 column (5 μm, 4.6 × 150 mm), and UV detector (VWD) set at 210 and 260 nm. The mobile phase for HPLC consisted of solvent A, which was 0.1% trifluoroacetic acid in water, and solvent B, which was 0.1% trifluoroacetic acid in acetonitrile. The solvent gradient was as follows (relative to solvent A): 0 min, 80% A; 10 min, 75% B; 20 min, 65% B; 30 min, 50% B; 40 min, 40%; 50 min, 30%; 60 min, 0% B; 0 min, 20%; 10 min, 25% B; 20 min, 35% B; 30 min, 50%; 40 min, 60%; 50 min, 70%; and 60 min, 100%. The column temperature was maintained at 30 °C with an injection volume of 10 μL at a flow rate of 1.0 mL/min.
as §1

## O=C(/C=C/c1ccc(O)cc1)CC(=O)/C=C/c1ccc(O)cc1 [BDMC, bisdemethoxycurcumin]
[1]
  solubility in dimethyl sulfoxide: 25000 µg/mL (≈ 81.1 mM)
  solubility in ethanol: 10000 µg/mL (≈ 32.4 mM)
  solubility in water: 11 µg/mL (≈ 0.0357 mM)

## COc1cc(/C=C/C(=O)CC(=O)/C=C/c2ccc(O)c(OC)c2)ccc1O [Curcumin, curcumin]
[1]
  solubility in dimethyl sulfoxide: 25000 µg/mL (≈ 67.9 mM)
  solubility in ethanol: 10000 µg/mL (≈ 27.1 mM)
  solubility in water: 11 µg/mL (≈ 0.0299 mM)

## COc1cc(/C=C/C(O)=C/C(=O)/C=C/c2ccc(O)cc2)ccc1O [DMC, demethoxycurcumin]
[1]
  solubility in dimethyl sulfoxide: 25000 µg/mL (≈ 73.9 mM)
  solubility in ethanol: 10000 µg/mL (≈ 29.6 mM)
  solubility in water: 11 µg/mL (≈ 0.0325 mM)

## C=C1C[C@@]23CC[C@H]4[C@@](C)(CCC[C@@]4(C)C(=O)O[C@@H]4O[C@H](CO)[C@@H](O)[C@H](O)[C@H]4O)[C@@H]2CC[C@]1(O[C@@H]1O[C@H](CO)[C@@H](O)[C@H](O)[C@H]1O)C3 [R, rubusoside]
[2]
  stability of solubilized curcuminoids at room temperature: highly stable
  stability of aqueous curcuminoid solutions on long-term storage: did not exhibit good stability
[1]; 10% rubusoside aqueous solution (w/v)
  solubility of curcumin in rubusoside aqueous solution: 600 to 2300 µg/mL

## C=C1C[C@@]23CC[C@H]4[C@@](C)(CCC[C@@]4(C)C(=O)O)[C@@H]2CC[C@]1(O[C@@H]1O[C@H](CO)[C@@H](O)[C@H](O)[C@H]1O)C3 [SMG, steviol mono-glucoside]
[3]
  Total Curcuminoids Ratio Microwave /NT (fold): 7.3 fold
  Bisdemethoxycurcumin (mg/mL) NT: 0.04 ± 0.01 mg/mL
  Curcumin (mg/mL) NT: 0.46 ± 0.1 mg/mL
  Demethoxycurcumin (mg/mL) NT: 0.04 ± 0.01 mg/mL
  Total Curcuminoids (mg/mL) NT: 0.54 ± 0.1 mg/mL
  Bisdemethoxycurcumin (mg/mL) Microwave: 0.52 ± 0.1 mg/mL
  Curcumin (mg/mL) Microwave: 2.52 ± 0.15 mg/mL
  Demethoxycurcumin (mg/mL) Microwave: 0.88 ± 0.1 mg/mL
  Total Curcuminoids (mg/mL) Microwave: 3.92 ± 0.5 mg/mL

## C=C1C[C@@]23CC[C@H]4[C@@](C)(CCC[C@@]4(C)C(=O)O[C@@H]4O[C@H](CO)[C@@H](O)[C@H](O)[C@H]4O)[C@@H]2CC[C@]1(O[C@@H]1O[C@H](CO)[C@@H](O)[C@H](O)[C@H]1O[C@@H]1O[C@H](CO)[C@@H](O)[C@H](O)[C@H]1O)C3 [ST, stevioside]
[2]
  stability of solubilized curcuminoids at room temperature: highly stable

## α-glucosyl stevioside [STG]
[3]
  Total Curcuminoids Ratio Microwave /NT (fold): 7.0 fold
  Bisdemethoxycurcumin (mg/mL) NT: 0.04 ± 0.01 mg/mL
  Curcumin (mg/mL) NT: 0.51 ± 0.2 mg/mL
  Demethoxycurcumin (mg/mL) NT: 0.05 ± 0.01 mg/mL
  Total Curcuminoids (mg/mL) NT: 0.61 ± 0.1 mg/mL
  Bisdemethoxycurcumin (mg/mL) Microwave: 0.69 ± 0.2 mg/mL
  Curcumin (mg/mL) Microwave: 2.72 ± 0.3 mg/mL
  Demethoxycurcumin (mg/mL) Microwave: 0.83 ± 0.1 mg/mL
  Total Curcuminoids (mg/mL) Microwave: 4.24 ± 0.6 mg/mL
[2]
  stability of aqueous curcuminoid solutions on long-term storage: very good stability
